Test results: patent publication US20040019060A1, “Sigma receptor ligands and their medical uses” (priority 2000, published 2004)
Read-outs that look alike come from different tables or passages of the source.

Tests used:
endothelial cells = test: Endothelial cell proliferation assay (cell phosphatase activity); assay type: cell-based, human; settings: for IC50: concentration of drug required to inhibit survival and/or proliferation by 50%, read-out: Antagonists: IC50; for Rescue from Rimcazole inhibition of proliferation: 4 μM agonist added together with 4 μM Rimcazole; for Stimulatory activity on cell proliferation: agonist ligands alone; for Agonists: stimulation: increase in cell number relative to controls on day 4
Description: HUVECS (human umbilical vein endothelial cells) obtained from TCS Biologicals were grown in TCS Biologicals Large Vessel Endothelial Cell Basal Medium (ZHM-2951) with supplement (ZHS-8945). This contains heparin, hydrocortisone, human EGF, human bFGF (concentrations not disclosed by the Company) with added 2% FCS, pH 7.4.
(§1) HMEC-1 (immortalised human microvascular endothelial cells) obtained from Dr Colin Porter, Chester Beatty Laboratories were grown in TCS Biologicals Microvascular Endothelial Cell Basal Medium (ZHM-2946) with supplement (ZHS-8947). This contains heparin, hydrocortisone, human EGF, human bFGF, dibutyryl cyclic AMP (concentrations not disclosed by the Company) with added 5% FCS, pH 7.4.
as §1, with “HDMECS (human dermal” for “HMEC-1 (immortalised human”, “TCS Biologicals” for “Dr Colin Porter, Chester Beatty Laboratories”
The cells were seeded at 2×10^4 ml in 96 well microtitre plates on day 0, and sigma ligands were added in fresh medium on day 1. […] PCS at the concentrations indicated was present throughout the assay. Each concentration of drug was assayed in triplicate, and the vehicle concentration was kept constant.
Viable cells present at the end of the assay were estimated by determining phosphatase activity as follows: 100Xl of paranitrophenylphosphate (Sigma) at 3 mg/ml in phosphate buffer pH 5.5 containing 0.1% Triton X100 was added to wells and incubated for 2hr at 37° C. The reaction was stopped with 1N NaOH. Released paranitrophenol, indicative of attached cell number, was measured by reading the absorbance at 405 nm in a Titertek multiscan. […] The 100% value is the mean absorbance of control wells treated with vehicle alone; the 0% value is that of wells containing medium only.

sigma-1 sites = sigma-1 sites (Homo sapiens, UniProt Q99720); settings: cited from earlier work; for affinity for sigma-1 versus sigma-2 sites / selectivity for sigma sites compared to other receptors: Matsumoto et al 1995; for selectivity for sigma sites compared to other receptors: vs opiate, phencyclidine, muscarinic, dopamine, alpha-1-, alpha-2-, beta-adrenoceptor, 5HT-1, 5-HT-2
[1] = test system: human adult dermal fibroblasts; test: MTS cell viability/proliferation assay, dermal fibroblasts; assay type: cell-based
Excerpt: (§2) (Tissue in all cases was from healthy donors). […] Primary cell types included:
(§3) Cell density was checked microscopically at time zero.

[2] = test system: Human mammary carcinoma (MDA MB 468) cells; test: MTS cell viability/proliferation assay, mammary carcinoma cells; assay type: cell-based; settings: 10 micromolar, low passage cells, FIG. 9
Description: Human mammary carcinoma (MDA MB 468) cells were obtained from TCC, Manassas, Va., USA; catalogue number HTB-132; cells were grown in accordance with the manufacturer's instructions.
as §3

sponge angiogenesis = test: Rat sponge angiogenesis model (125I albumin vascular volume); assay type: in vivo, CBH/cbi rats
Description: In order to study neoangiogenesis in the absence of tumours, sterile polyether sponges were implanted into animals. This technique, developed in Cambridge, has been widely used to study angiogenesis. We have employed a triple radiotracer technique to study different aspects of the angiogenic process.
CBH/cbi rats were implanted s.c. with sterile 13 mm diameter sponges as above. They were treated i.p. with Rimcazole (30 mg/kg/day) for 14 days from day 0. Five minutes before termination, they were injected with ^125I labelled rat albumin (a macromolecule which, in the short term remains intravascular). The amount of radioiodine in the sponges is an index of vascular volume.

[3] = test system: Human endothelial cells co-cultured with human "feeder" fibroblasts; test: In vitro angiogenesis assay (pseudocapillary formation, anti-CD31 staining); assay type: cell-based
Description: Human endothelial cells co-cultured with human “feeder” fibroblasts on a fibrin matrix in 24 well plates were incubated with ligands at different concentrations. The ligands were added on days 0, 4, 7 and 9 and the experiment terminated on day 11. On each plate, 2 wells served as untreated controls, and 2 received suramin at […] as a standard angiogenesis inhibitor. Each concentration of ligand was assayed in triplicate. On day 11, the wells were washed, and the endothelial cells fixed and stained with anti-CD31 (PECAM-1) antibody and visualised with alkaline phosphatase conjugated second antibody. The cultures were scanned for image analysis and quantitation using a DataCell image analysis system and ImagePro software. Angiogenesis was expressed as the area and/or perimeter of “pseudocapillaries” formed in the gel by the endothelial cells.

[4] = test system: Human adult dermal microvascular endothelial cells; test: MTS cell viability/proliferation assay, microvascular endothelial cells
[5] = Pharmacokinetics in mice (LCMS of plasma, liver, spleen); assay type: in vivo, Balb/C mice; settings: not shown
Description: Prior to undertaking any in vivo experiments with Rimcazole to study effects on tumour growth and angiogenesis, it was necessary to determine its pharmacokinetics in order that doses in the active range could be administered. Rimcazole (dissolved in water) was administered at 40 mg/kg i.p to Balb/C mice. Heparinised blood samples were taken at 5, 15 and 30 minutes, 1,2,4,6, and 24 hours and plasma separated. Tissue samples were also taken at some time points for analysis. Rimcazole samples were initially analysed by LCMS.
Column: Supelco 50×4.6 mm ABZ+ with 5 μ packing.
Mobile phase: A=HPLC grade methanol, B=0.1% formic acid in water.
Full scan mode: mass range analysed 50 to 850 amu.
MSMS mode: filtered ions were 322 (Rimcazole), 338 (Rimcazole+oxygen), and 514 (glucuronide of 338 metabolite).

[6] = test system: Human mammary epithelial cells; test: MTS cell viability/proliferation assay, mammary epithelial cells; assay type: cell-based; settings: 10 micromolar, up to 48 hours, FIG. 9
Excerpt: as §2
Human mammary epithelial cells (catalogue number CC-2551; stain positive for cytokeratins 14, 18 and 19).
as §3

Sequence of sigma-1 sites (Q99720 whole entry): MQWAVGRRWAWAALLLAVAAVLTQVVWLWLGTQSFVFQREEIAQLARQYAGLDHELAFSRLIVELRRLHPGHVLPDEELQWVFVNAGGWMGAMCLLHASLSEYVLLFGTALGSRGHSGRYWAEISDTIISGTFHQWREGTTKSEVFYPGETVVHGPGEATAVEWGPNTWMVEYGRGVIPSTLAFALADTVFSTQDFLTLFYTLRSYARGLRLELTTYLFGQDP

CN1CCN(CCc2ccc(Cl)c(Cl)c2)CC1 [BD1063, 1(−)[2-(3,4-dichlorophenyl)ethyl]-4-methylpiperazine]
IC50 (endothelial cells; Homo sapiens, Endothelial cell): 71 µM
affinity for sigma-1 versus sigma-2 sites (sigma-1 sites): preferential affinities for sigma-1 compared to sigma-2
selectivity for sigma sites compared to other receptors (sigma-1 sites): marked selectivity

N=C(Nc1ccc(I)cc1)NC1C2CC3CC(C2)CC1C3 (stereo not shown) [IPAG, 1-(4-iodophenyl)-3-(2-adamantyl)guanidine]
IC50 (endothelial cells; Homo sapiens, Endothelial cell): 11 µM
Inhibition of endothelial cell proliferation compared with Rimcazole (endothelial cells; not shown): as effective as Rimcazole
Survival and proliferation (MTS) ([1]; 10 micromolar, up to 48 hours, FIG. 9): continued to proliferate vigorously
Tolerance of fibroblasts over a range of concentrations (MTS) ([1]; 100 micromolar to 1 nanomolar, FIG. 10): slightly less tolerant of high concentrations
Ki (sigma-1 sites; Whittemore et al 1997, read-out: inhibition constant for sigma-1 sites): ~0.0028 µM
Cell killing (MTS viability) [2]: no surviving cells remained after 24 hours
Vascular volume of normal organs (liver and kidney) (sponge angiogenesis; 30 mg/kg/day for 14 days): unaffected
Neoangiogenesis in sponges (vascular volume, radiolabelled albumin) (sponge angiogenesis; 30 mg/kg/day for 14 days after implantation, FIG. 7b): reduced
Inhibition of pseudocapillary formation (in vitro angiogenesis) ([3]; FIG. 4, 5a, 5b angiogenesis area): very effective in inhibiting
cytotoxicity at 10 µM ([4]; Homo sapiens, Endothelial cell, read-out: Reduction in viable cell numbers compared to baseline values): 60 to 80%
Pharmacokinetics compared with Rimcazole [5]: similarly favourable PK
Survival and proliferation (MTS) [6]: continued to proliferate vigorously

CN(C)CCN(C)CCc1ccc(Cl)c(Cl)c1 [BD1047, N(−)[2-(3,4-dichlorophenyl)ethyl]-N-methyl-2-(dimethylamino)ethylamine]
IC50 (endothelial cells): 74 µM
affinity for sigma-1 versus sigma-2 sites (sigma-1 sites): preferential affinities for sigma-1 compared to sigma-2
selectivity for sigma sites compared to other receptors (sigma-1 sites): marked selectivity

CC(C)=CCN1CCC2(C)c3cc(O)ccc3CC1C2C (single isomer, unassigned; (+)) [(+)pentazocine, (+)-pentazocine]
Rescue from Rimcazole inhibition of proliferation (endothelial cells; FIG. 3): slight increase in survival
Stimulatory activity on cell proliferation (endothelial cells): moderate stimulatory activity
Agonists: stimulation (endothelial cells; at 4 μM): 120% at 4 μM
Rescue of in vitro angiogenesis inhibition by 4 μM Rimcazole ([3]; equimolar concentration co-incubated, FIG. 5c): can be prevented
Prevention of cytotoxic effect of IPAG and rimcazole ([4]; 10 micromolar co-administered with 10 micromolar IPAG or rimcazole, FIG. 11): completely prevented
Cell proliferation rate on co-administration with rimcazole and IPAG ([4]; co-administration, FIG. 11): increased cell proliferation rates above control values

C=CCN1CCC2(C)c3cc(O)ccc3CC1C2C (single isomer, unassigned; (+)) [(+)-SKF-10047, (+)-N-allyl normetazocine]
Rescue from Rimcazole inhibition of proliferation (endothelial cells; FIG. 3): slight increase in survival
Rescue from Rimcazole inhibition: numbers of endothelial cells (endothelial cells; 10 μM agonist added together with 4 μM Rimcazole, FIG. 3): the same as in control untreated cultures
Stimulatory activity on cell proliferation (endothelial cells): moderate stimulatory activity
Agonists: stimulation (endothelial cells; at 100 μM): 110% at 100 μM
